Laboratory results published in US20230277449A1, “ORAL CAVITY POLYMERIC DELIVERY SYSTEMS” (YISSUM RESEARCH DEVELOPMENT COMPANY OF THE HEBREW …, priority 2020, published 2023).
≈ marks a conversion by molar mass, not a printed value. Read-outs that look alike come from different tables or passages of the source.

What was measured:
[1] = APO release from hydrogel-based core through dialysis bag; assay type: physicochemical; conditions: 20 mg APO in 0.5 ml hydrogel pH 5.9, dialysis bag
Protocol: DDW. 100.0, 120.0 or 150 mg fish gelatin were added. No gelatin was added to the fourth group. All work was done in triplicates. After vigorous stirring full dissolution to homogenous solution was achieved. The pH of the solutions was adjusted to 5.9 by H3PO4 and KOH. 0.5 ml of each solution was introduced into dialysis bag (Specta/PorⓇDialysis membrane, MWCO 25000, flat width 12 mm). The bags were submerged into a beaker with 100 ml 0.1% ascorbic acid solution adjusted to pH 5.9 by NaOH and HCl. The solutions were held at 34° C. (±1) with constant stirring. 100 µl samples were taken at time points 0, 10, 25, 40, 60, 90, 120, 150 and 180 min into a vial containing 1 µl of 10%^v/v mercaptoethanol ethanolic solution. 100 µl of fresh receiving solution was added to the beaker to retain sink conditions. […]
2.1.4 Chromatographic analysis of in-vitro samples: The samples were injected into Waters 2695 Separation Module HPLC system coupled with Waters 2475 Multi Gamma Fluorescence Detector (Waters Co., MA, USA), into BDS Hypersil Cyano (Phenomenex, CA, USA) column (5 µm, 100 Å, 250 mm × 4.6 mm) protected by Hypersil Cyano (Phenomenex, CA, USA) pre-column (5 µm, 4 mm × 10 mm). […] Linearity curve (2.5-250 µg/ml, R^2>0.997) was performed before the batch of samples and used for quantification.

[2] = IV administration of APO to pigs, pharmacokinetics; conditions: female, pig, plasma, 1 mg/kg
Protocol: 2.1.7 In-vivo protocol of IV administration: Domestic female pigs (sus scrofa domesticus) of 35-40 kg were allowed to acclimate before the experiment. Pigs were fasted overnight before the experiments. On the morning of the experiment pigs were anesthetized by xylazine 1 mg/kg, midazolam 0.04 mg/kg, ketamine 5 mg/kg and propofol 4 mg/kg. Pigs were positioned on their back. Endotracheal tube was inserted, and pigs were respired with oxygen. […] Catheter was inserted into ear vein through which physiological saline was administered. Pigs received amoxicillin 15 mg/kg antibiotic and tolfenamic acid 2 mg/kg analgesic. An intra-jugular catheter was inserted for blood sampling. Pigs were constantly monitored for their respiration rate, rectal temperature, O2 saturation, heart rate and blood pressure. Cardiovascular parameters were obtained by blood pressure monitor with porcine adapted front leg cuff. […] Plasma was collected into tubes containing 10 µl mercaptoethanol and stored at -80° C. pending analysis. Isoflurane anesthesia was terminated, and pigs were recovered under veterinary surveillance to consciousness.
The samples were reconstituted in 100 µl 1:4 MeOH:DDW solution containing 0.01%^v/v formic acid and 0.1%^v/v mercaptoethanol and injected into LC-MS-MS system.
2.1.12 Chromatographic analysis of in-vivo samples: The chromatography was performed using a Shimadzu UHPLC System. The chromatographic separations were performed on a Kinetex™ (Phenomenex, CA, USA) column (EVO C18, 2.6 µm, 100 Å, 100 × 2.1 mm), protected by a SecurityGuard™ (Phenomenex, CA, USA) ULTRA cartridge (C18, 4 × 2 mm). The injection volume was 5 µl, temperature was 40° C.

[3] = In-vivo permeability study on rats (buccal administration)
[4] = Simulation of the results in pig to human setup; conditions: same ABPD conditions, CL difference, Eq. 2
Protocol: Plasma levels at steady state (Css) of the test substance following in-vivo buccal administration are calculated by Eq. 2:
where CL is the PK parameter of total clearance of the tested substance in-vivo.

[5] = Simulation to human plasma levels from ex-vivo Papp
Protocol: The flux (Jss) of the test substance via the buccal mucosa is calculated by Eq. 6:
Simulation of blood levels at steady state (Css) of the substances if administered in-vivo is calculated by Eq. 7:
where CL is the pharmacokinetic parameter of total clearance of the tested substance in-vivo.
Application area (A) was 50 cm^2 which corresponds to buccal area in humans.

[6] = cited from earlier work
[7] = Monitored vital parameters after IV APO in pigs; assay type: in vivo, pig; conditions: 1 mg/kg IV APO, mean (lowest - highest)
Text: Pigs were fasted overnight before the experiments. […] Pigs were positioned on their back.

[8] = Simulation of rat plasma levels after buccal administration; conditions: rat 330 gr, Co = 19 mg/ml, A = 0.2 cm^2, Papp = 0.51*10^-6 cm/sec
Text: Papp through porcine buccal mucosa was selected (as lower Papp is of no clinical relevance).

[9] = Physicochemical properties stated in the text (log P, pKa, solubility); conditions: gelatin hydrogel, aqueous with cosolvent or surfactant or cyclodextrin, read-out: solubility in buffered hydrogel
[10] = Ex-vivo permeability of APO, MTP and ATN in Ussing diffusion chamber; assay type: in vitro ADME, pig; conditions: pH 7.4 with addition of 10% v/v NLF
[11] = Ex-vivo - in-vivo correlation (Jss and Css calculated from Papp for pig)
Protocol: where dQ/dt is the amount of test substance permeated over time and A is the area of buccal mucosa available for permeation. Plasma levels at steady state (Css) of the test substance following in-vivo buccal administration are calculated by Eq. 2:
Apparent permeability (Papp) is calculated by Eq. 3:
where Co is the initial concentration of the test substance near the buccal mucosa in the ABPD at the beginning of the experiment.

in vivo = conditions: pig
Text: 2.1.1 HPMC-based core ABPD preparation: All polymers were sieved through a 50-mesh sieve prior to their use.
The dispersion was slowly cooled with constant vigorous stirring to room temperature to obtain a solid. This solid was introduced into 8 mm flat-faced punch and die set. […] The diameter of the core was changed to 10.5 mm due to compression.
DDW and vigorously stirred until full dissolution to homogenous solution. The pH of the solution was adjusted to 5.9 by H3PO4 and KOH. The solution was cooled at room temperature for 10 min with continuous stirring.
2.1.8 In-vivo protocol of buccal administration: Following full recovery of 1 week, these (and additional) pigs underwent experiments with administration of buccal devices. The preparation of pigs for the experiments were done as previously described. Pigs were positioned on their left side. Inner side of the left cheek was gently cleaned with a gauze. […] The liquefied core was carefully collected and stored at -80° C. […] Cheeks were excised. […] The other half was fixated in 4% formaldehyde and stored for at least a month. Afterwards, these samples were trimmed, embedded in paraffin and sectioned. They were stained with Hematoxilyn and Eosin and underwent a histopathological examination. As a first step, each of the first 3 pigs received a different ABPD (as previously described): hydroxypropyl methylcellulose (HPMC) - based core, witepsol H15 - based core, or hydrogel - based core. After results evaluation, 3 additional pigs received hydrogel -based core ABPDs. Lastly, 1 pig received a hydrogel-based core ABPD with modified parameters.
The tubes were vigorously shaken for approximately 20 h. […] The supernatant was transferred to a clean tube, to which 0.3 ml of 1M NaOH and 0.7 ml 0.2 M Na2HPO4 were added. The tubes were vortex-mixed for 2 min. The pH was adjusted to 7 - 9 by NaOH and HCl. […] The supernatant was transferred to a clean tube and evaporated to dryness under vacuum. 3 ml of 0.1 M HCl were added to the tissue once again and vigorously shaken for 20 min. Afterwards, the tissue underwent the same procedure one more time with supernatant collected to respective tubes as previously. […] Samples were 2000-fold diluted in the reconstitution diluent and injected into LC-MS-MS system.
Following this analysis PK parameters were obtained.

Compound: CN1CCc2cccc3c2[C@H]1Cc1ccc(O)c(O)c1-3 [APO, apomorphine]
- time at which all APO dose was released [1]: 1.5 h
- AUC(0-inf) [2]: 107 ng·h/mL
- Vd [2]: 6.6 L/kg
- clearance [2]: 218 mL/min/kg
- APO in the plasma ([3]; buccal solution, three anesthetized rats, 8 h): not detected
- APO concentration in the solution inside the delivery device at 8 h vs initial ([3]; rats): did not change
- Css simulated for 70 kg human [4]: 4 to 6 ng/mL
- Jss calculated (mg/(cm^2*h)) ([5]; 1:1 ethanol: propylene glycol, 20 mg/ml): 0.84 mg/(cm^2*h)
- Jss calculated (mg/(cm^2*h)) ([5]; pH 5.9, 20 mg/ml): 0.04 mg/(cm^2*h)
- Jss calculated (mg/(cm^2*h)) ([5]; pH 7.4, 20 mg/ml): 0.22 mg/(cm^2*h)
- CL ([6]; human, literature): 50 to 83 mL/min/kg
- Vd ([6]; human, literature): 1 to 2 L/kg
- excreted unchanged to urine ([6]; humans): up to 4%
- Diastolic blood press (mmHg) [7]: 43.1 (32 - 55) mmHg
- Heart rate (beats/min) [7]: 95.2 (74 - 120) beats/min
- O2 saturation (%) [7]: 97.7 (95 - 100) %
- Respiration rate kept at (min^-1) [7]: 12.2 (11- 13) min^-1
- Systolic blood press (mmHg) [7]: 81.7 (72 - 101) mmHg
- Rectal temp (°C) ([7]; four pigs): 38.2 (37.4 - 39.4) °C
- calculated Css [8]: 2.3 ng/mL
- solubility [9]: 40 mg/mL (≈ 150 mM)
- lag-time [10]: 3 h
- ex-vivo predicted Css lower than in-vivo Css [11]: 4 times
- Jss calculated ([11]; pH 5.9, 40 mg/ml APO in hydrogel, Eq. 3): 0.073 mg/(cm^2*h)
- Css calculated from ex-vivo Papp ([11]; pig of 43 kg, 4.74 cm^2, Eq. 2): 0.59 ng/mL
- Cmax after removal smaller than with the four pigs (in vivo): 2 fold
- Cmax of the peak higher than Css (in vivo): 4 fold
- time of Cmax (in vivo): 8.7 h
- time of the peak after ABPD removal (in vivo): about 45 min
- Css experimentally obtained (in vivo; 1.37 mg/kg): 2.15 (±0.44) ng/ml
- theoretical Css predicted (in vivo; 1.37 mg/kg): 2.24 ng/mL
- AUC (in vivo; 2 mg/kg): 32.8 ng·h/mL
- AUC(0-inf) (in vivo; 2 mg/kg): 50.7 ng·h/mL
- Cmax (in vivo; 2 mg/kg): 9.7 ng/mL
